Literature values, collected in US6897334B2 (Board of Regents of the University of Nebraska, priority 2003, dated 2005).

Conditions: background statement

solubility in an aqueous solution: over 200 mg/ml
SMILES: CCOC(=O)CN(C)C(=N)N [creatine ethyl ester, Creatine ethyl ester]
